Like-named read-outs stand apart in the source and are kept apart here.
Columns and labels:
P-gp [1] = molecular target: T1, P-gp (Homo sapiens, UniProt P08183); type: cell-based; conditions: MDR1-MDCK cells, n = 3
T1 construct: host or cells: MDR1-MDCK cells
Procedure: MDR1-MDCK cells, obtained from the College of Pharmaceutical Sciences in Zhejiang University (China), were cultured in DMEM containing 10% FBS, 100 µg/mL-100 U/mL penicillin-streptomycin, and 1% NEAA at 37°C in an atmosphere of 5% CO2 and 95% relative humidity. Cells were passaged at 80%–90% conﬂuence. P-gp inhibitors were screened by MDR1-MDCK cell transport study using the calcein-AM kit. Briefly, the cells were seeded in a 96-well black opaque plate and cultured for 48 h. Then, the cells were washed twice with PBS. 100 µL drug and 50 µL culture medium was added and preincubated at 37°C for 10 min. 50 µL 1 µM calcein-AM was added and incubated at 37°C for 1 h. Cold PBS was used to terminate the reaction. 100 µL 0.1% Triton-100 was added for cell permeability.
RFR was calculated by (4) RFR=RFU TS/RFU CS×100%. Here, RFU TS was the RFU of the test sample and RFU CS was the RFU of the control sample.

P-gp [2] = type: in vivo, rat; conditions: in the presence of verapamil, n = 6, Figure 10
Procedure: (§1) Rats were anaesthetized by an intraperitoneal injection of urethane and then placed on a heated pad. The small intestine was exposed by surgery. 10 cm of the ileum segment was ligated and cannulated with glass tubing for perfusion. Caroline et al. reported that the level of P-gp expression in rat ileum was the highest. In order to better reflect the characteristics of P-gp, we selected the ileum segment. The cannulated segment was rinsed with saline (37°C), and attached to the perfusion assembly consisted of a syringe pump and a 50 ml syringe. The selected ileum was placed as “U” shape and covered with the gauze wet by saline. The perfusate was collected every 10 min at a flow rate of 0.2 ml/min for 90 min. The perfused intestine segment was removed and opened along the mesentery to measure the area. Samples were frozen immediately and stored at -20°C until analysis. Digoxin, an exclusive substrate of P-gp, was chosen as the FDA guidelines.
The concentrations of drugs in SPIP experiment were determined by HPLC. A MS-C18 column (5 μm, 4.6 mm × 150 mm, Agilent, USA) with an analytical TC-C18 guard column (5 μm, 4.6 mm × 12.5 mm, Agilent, USA) was maintained at 30°C. […] Digoxin was detected by absorbance at 220 nm and benzoylaconine, benzoylmesaconine, and benzoylhypacoitine at 235 nm.
P eff was calculated by the following equation:(1) Peff=−QinlnCoutQout/CinQin/2πrL. […]

ileum = experiment: Rat SPIP, Peff of monoester alkaloids in Radix aconiti praeparata extract with or without Bulbus fritillariae; type: in vivo; conditions: n = 6, Figure 3
Procedure: as §1
The concentrations of drugs in SPIP experiment were determined by HPLC. A MS-C18 column (5 μm, 4.6 mm × 150 mm, Agilent, USA) with an analytical TC-C18 guard column (5 μm, 4.6 mm × 12.5 mm, Agilent, USA) was maintained at 30°C. The analytical mobile phase about digoxin consisted of water and acetonitrile in a 75 : 25 (v/v) ratio. Benzoylaconine, benzoylmesaconine, and benzoylhypacoitine consisted of 0.05% acetic acid and methanol in a gradient from 85 : 15 to 55 : 45 (v/v) ratio. The flow rate was 1 mL/min. The injection volume was 10 µL. Digoxin was detected by absorbance at 220 nm and benzoylaconine, benzoylmesaconine, and benzoylhypacoitine at 235 nm.
P eff was calculated by the following equation:(1) Peff=−QinlnCoutQout/CinQin/2πrL. Here, Qin and Qout were the flow rate at inlet and outlet, respectively. Cin and Cout were the concentration at inlet and outlet, respectively. 2πrL was the mass transfer surface area within the intestinal segment, which was assumed to be the area of the cylinder with the radius (r) and length (L).

T1 sequence (P08183 whole entry): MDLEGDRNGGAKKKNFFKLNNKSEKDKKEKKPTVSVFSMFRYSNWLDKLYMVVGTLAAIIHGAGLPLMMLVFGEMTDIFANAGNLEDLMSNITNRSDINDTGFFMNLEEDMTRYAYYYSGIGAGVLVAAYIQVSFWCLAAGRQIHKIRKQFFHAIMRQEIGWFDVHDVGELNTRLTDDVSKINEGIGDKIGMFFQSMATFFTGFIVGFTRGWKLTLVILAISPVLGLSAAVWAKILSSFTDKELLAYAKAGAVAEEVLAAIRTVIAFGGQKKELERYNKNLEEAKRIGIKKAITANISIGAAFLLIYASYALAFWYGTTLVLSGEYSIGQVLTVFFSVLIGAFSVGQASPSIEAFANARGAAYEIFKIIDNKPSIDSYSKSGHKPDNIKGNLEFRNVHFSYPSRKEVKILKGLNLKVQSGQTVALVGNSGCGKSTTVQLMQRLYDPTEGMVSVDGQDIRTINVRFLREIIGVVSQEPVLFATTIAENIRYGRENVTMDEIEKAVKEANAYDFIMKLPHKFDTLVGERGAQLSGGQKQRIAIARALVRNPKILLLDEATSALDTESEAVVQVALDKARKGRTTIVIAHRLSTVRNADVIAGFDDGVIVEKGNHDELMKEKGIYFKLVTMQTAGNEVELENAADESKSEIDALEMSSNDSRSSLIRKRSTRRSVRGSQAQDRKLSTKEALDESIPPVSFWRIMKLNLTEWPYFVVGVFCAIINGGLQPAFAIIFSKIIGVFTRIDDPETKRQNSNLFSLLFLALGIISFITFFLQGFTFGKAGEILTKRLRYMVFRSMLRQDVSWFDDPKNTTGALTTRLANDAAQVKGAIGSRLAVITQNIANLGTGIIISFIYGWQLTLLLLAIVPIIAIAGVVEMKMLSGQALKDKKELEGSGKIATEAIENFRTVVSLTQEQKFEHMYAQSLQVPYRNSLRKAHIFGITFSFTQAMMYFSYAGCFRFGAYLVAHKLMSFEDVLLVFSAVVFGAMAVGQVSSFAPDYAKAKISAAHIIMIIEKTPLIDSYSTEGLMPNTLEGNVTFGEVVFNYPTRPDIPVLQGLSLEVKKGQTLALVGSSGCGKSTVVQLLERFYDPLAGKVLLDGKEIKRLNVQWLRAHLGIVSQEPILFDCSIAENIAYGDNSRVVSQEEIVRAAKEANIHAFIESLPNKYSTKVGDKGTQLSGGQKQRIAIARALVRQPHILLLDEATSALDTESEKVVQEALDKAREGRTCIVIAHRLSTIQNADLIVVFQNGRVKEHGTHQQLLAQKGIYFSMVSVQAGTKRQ

Structure (SMILES): C[C@H]1CCC2N(C1)C[C@H]1C3CC4[C@@H](CC(=O)C5C[C@@H](O)CC[C@@]54C)C3CCC1[C@]2(C)O (stereo partly shown) [Peiminine]
- RFR of calcein versus control group (P-gp [1]; high-dose group): no significant differences
- RFR of calcein versus control group (P-gp [1]; low-dose group): no significant differences

Structure (SMILES): CC1=C2C[C@H]3[C@@H](CC(=O)[C@H]4C[C@@H](O)CC[C@@]43C)[C@@H]2CC[C@]12O[C@@H]1C[C@H](C)CN[C@H]1[C@H]2C [Peimisine]
- RFR of calcein versus control group (P-gp [1]; high-dose group): highly significant differences
- RFR of calcein versus control group (P-gp [1]; low-dose group): highly significant differences

Structure (SMILES): C[C@H]1CC[C@@H]2N(C1)C[C@H]1[C@@H]3C[C@H]4[C@@H](C[C@H](O)[C@H]5C[C@@H](O)CC[C@@]54C)[C@@H]3CC[C@@H]1[C@]2(C)O [Peimine]
- RFR of calcein versus control group (P-gp [1]; high-dose group): highly significant differences
- RFR of calcein versus control group (P-gp [1]; low-dose group): no significant differences

Structure (SMILES): COC[C@@]12CC[C@H](OC)[C@]34C([C@H]([C@H](OC)[C@H]13)[C@]1(O)[C@H]3[C@@H](OC(=O)c5ccccc5)[C@](O)(C[C@H]34)[C@@H](OC)[C@@H]1O)N(C)C2 [Benzoylhypacoitine]
- Peff of monoester alkaloid in Radix aconiti praeparata extract versus that supplemented with verapamil (P-gp [2]): No significant differences
- Peff of monoester alkaloid in Radix aconiti praeparata extract versus Radix aconiti praeparata + Bulbus fritillariae cirrhosae extract (ileum): No significant differences
- Peff of monoester alkaloid in Radix aconiti praeparata extract versus Radix aconiti praeparata + Bulbus fritillariae thunbergii extract (ileum): No significant differences

Structure (SMILES): CCN1C[C@]2(COC)[C@H](O)C[C@H](OC)[C@@]34[C@@H]5C[C@@]6(O)[C@H](OC(=O)c7ccccc7)[C@@H]5[C@@](O)([C@@H]([C@H](OC)[C@H]23)[C@@H]14)[C@@H](O)[C@@H]6OC [Benzoylaconine]
- Peff of monoester alkaloid in Radix aconiti praeparata extract versus that supplemented with verapamil (P-gp [2]): No significant differences
- Peff of monoester alkaloid in Radix aconiti praeparata extract versus Radix aconiti praeparata + Bulbus fritillariae cirrhosae extract (ileum): No significant differences
- Peff of monoester alkaloid in Radix aconiti praeparata extract versus Radix aconiti praeparata + Bulbus fritillariae thunbergii extract (ileum): No significant differences

Structure (SMILES): COC[C@]12CN(C)C3[C@@H]4[C@H](OC)[C@H]1[C@@]3([C@@H](OC)C[C@H]2O)[C@@H]1C[C@@]2(O)[C@H](OC(=O)c3ccccc3)[C@@H]1[C@]4(O)[C@@H](O)[C@@H]2OC [Benzoylmesaconine]
- Peff of monoester alkaloid in Radix aconiti praeparata extract versus Radix aconiti praeparata + Bulbus fritillariae cirrhosae extract (ileum): significant differences

From publication PMC8510812, “Studies on the Incompatibility between Bulbus fritillariae and Radix aconiti praeparata Based on the P-gp” (Evidence-based Complementary and Alternative Medicine : eCAM, 2021)
